Measured values from US20240173432A1, “Compositions and Methods for Treatment of Myotonic Dystrophy Type 1 with CRISPR/SluCas9” (Vertex Pharmaceuticals Incorporated, priority 2021, published 2024).

What was measured:
[1] = test system: CUG foci in primary DM1 patient myoblasts; test: Dual-cut screening: FISH staining of CUG RNA foci; format: cell-based, human; conditions: sgRNAs working with partner(s) or alone
In short: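 SluCas9 RNPs (protein:sgRNA 1:3; 20 pmol SluCas9 + 60 pmol sgRNA per guide, paired 1:1) nucleofected into primary DM1 patient myoblasts, then DMSO or 3 μM DNA-PKi Compound 6 for 48 h. At 72 h post-nucleofection cells fixed, FISH-stained with Cy3-PNA(CAG)5 probe plus anti-MBNL1 and Hoechst; % CUG foci-free nuclei by high-content confocal imaging.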

[2] = test system: 3′ UTR of the human DMPK gene; test: Single-cut screening: indel editing efficiency by Sanger sequencing and ICE analysis in primary DM1 patient myoblasts; format: cell-based; conditions: vehicle-treated samples; for indel efficiency (Sanger sequencing and ICE analysis): single-cut, SluCas9 RNP, 72 hrs post nucleofection, wild-type allele; for Indel efficiency: single SluCas9 sgRNA RNP in primary DM1 patient myoblasts, Sanger sequencing and ICE analysis
In short: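 Indels were estimated by ICE from Sanger chromatograms of PCR amplicons covering the DMPK 3′ UTR wild-type allele, using only vehicle-treated samples; sgRNAs with R2<0.9 are flagged. Samples came from primary DM1 patient myoblasts (2 × 10^5) harvested 72 h after nucleofection with 30 pmol SluCas9 and 90 pmol single sgRNA RNP.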

[3] = test system: CAG foci in primary DM1 patient myoblasts; test: Single-cut screening: CAG foci staining; format: cell-based, human; conditions: single sgRNA; for % of CAG foci positive nuclei (DNA-PKi): DNA-PKi treated
In short: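 Primary DM1 patient myoblasts were PFA-fixed and hybridized with […] (1 ng/μL, 15 min at 80° C) in 30% formamide/2×SSC, followed by anti-MBNL1 immunostaining and Hoechst counterstain. CAG RNA foci were quantified by high-content confocal imaging after single-cut SuCas9 sgRNA editing.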

Row | Substance | RNA foci reduction efficiency [1] | indel efficiency (Sanger sequencing and ICE analysis) [2] | % of CAG foci positive nuclei (DNA-PKi) [3] [%] | % of CAG foci positive nuclei (Vehicle) [3] [%] | Indel efficiency [2] [%]
1 | ATGGGCAAACTGCAGGCCTGGG (listed as DNA, chemistry not fully specified) [SluD14] | exceptionally high RNA foci reduction efficiency | high editing IN4DEL efficiency | 3.96 | 6.7 | 
2 | GCCCCGTTGGAAGACTGAGTGC (listed as DNA, chemistry not fully specified) [SluU08] | exceptionally high RNA foci reduction efficiency | high editing IN4DEL efficiency | 1.61 | 2.21 | 87
3 | gggcTCGAAGGGTCCTTGTAGC (as printed in the source, key not given here) [SluU64] | exceptionally high RNA foci reduction efficiency | high editing IN4DEL efficiency | 2.58 | 1.23 | 59
4 | ggggcTCGAAGGGTCCTTGTAG (as printed in the source, key not given here) [SluU63] | exceptionally high RNA foci reduction efficiency | high editing IN4DEL efficiency | 5.49 | 3.29 | 
